Source: patent US20250154144A1 (CHILDREN'S HOSPITAL MEDICAL CENTER, priority 2021, published 2025)
Where two headings read alike, the source gives them in different places.

How the values were obtained:
THP1 cells = assay: Combination drug screening, Cell Titer Glo, 10 × 10 matrix, THP1 cells; format: cell-based
MOLM14(D835Y) cells = format: cell-based; conditions: MOLM14(D835Y), 10 × 10
[1] = starting conc. 2000 nM, with (+)-BAY-1251152 starting conc. 1000 nM
[2] = starting conc. 2000 nM, with Azacitidine (5-Azacytidine) starting conc. 20000 nM
[3] = starting conc. 2000 nM, with Palbociclib starting conc. 10000 nM
[4] = starting conc. 2000 nM, with Prednisolone starting conc. 10000 nM
[5] = starting conc. 2000 nM, with TNO-155 starting conc. 10000 nM
[6] = starting conc. 2000 nM, with Venetoclax (ABT-199) starting conc. 2000 nM
[7] = starting conc. 2000 nM, with Venetoclax (ABT-199) starting conc. 20000 nM
[8] = starting conc. 20000 nM, with (+)-BAY-1251152 starting conc. 1000 nM
[9] = starting conc. 20000 nM, with Azacitidine (5-Azacytidine) starting conc. 20000 nM
[10] = starting conc. 20000 nM, with Palbociclib starting conc. 10000 nM
[11] = starting conc. 20000 nM, with Prednisolone starting conc. 10000 nM
[12] = starting conc. 20000 nM, with TNO-155 starting conc. 10000 nM
[13] = starting conc. 20000 nM, with Venetoclax (ABT-199) starting conc. 2000 nM
[14] = starting conc. 20000 nM, with Venetoclax (ABT-199) starting conc. 20000 nM
[15] = title compound starting conc. 20000 nM + (+)-BAY-1251152 starting conc. 1000 nM
[16] = title compound starting conc. 20000 nM + Azacitidine (5-Azacytidine) starting conc. 20000 nM
[17] = title compound starting conc. 20000 nM + Palbociclib starting conc. 10000 nM
[18] = title compound starting conc. 20000 nM + Prednisolone starting conc. 10000 nM
[19] = title compound starting conc. 20000 nM + TNO-155 starting conc. 10000 nM
[20] = title compound starting conc. 20000 nM + Venetoclax (ABT-199) starting conc. 2000 nM
[21] = title compound starting conc. 20000 nM + Venetoclax (ABT-199) starting conc. 20000 nM
[22] = starting conc. 200 nM, with (+)-BAY-1251152 starting conc. 1000 nM
[23] = starting conc. 200 nM, with Azacitidine (5-Azacytidine) starting conc. 20000 nM
[24] = starting conc. 200 nM, with Palbociclib starting conc. 10000 nM
[25] = starting conc. 200 nM, with Prednisolone starting conc. 10000 nM
[26] = starting conc. 200 nM, with TNO-155 starting conc. 10000 nM
[27] = starting conc. 200 nM, with Venetoclax (ABT-199) starting conc. 2000 nM
[28] = starting conc. 200 nM, with Venetoclax (ABT-199) starting conc. 20000 nM

Cc1cc(-c2nc(C(=O)Nc3cc4oc(N5CCOCC5)nc4nc3N3CC[C@@H](O)C3)co2)ccn1 [CA-4948, reference compound]
Comments (THP1 cells; [1]): Antagonistic at both
Excess HSA Score (THP1 cells; [1]): 43.42
Comments (THP1 cells; [2]): Synergistic
Excess HSA Score (THP1 cells; [2]): −147.4
Comments (THP1 cells; [3]): Synergistic
Excess HSA Score (THP1 cells; [3]): −41.44
Comments (THP1 cells; [4]): Antagonistic
Excess HSA Score (THP1 cells; [4]): 28.64
Comments (THP1 cells; [5]): Antagonistic
Excess HSA Score (THP1 cells; [5]): 22.1261
Comments (THP1 cells; [6]): Antagonistic
Excess HSA Score (THP1 cells; [6]): 806.5237
Comments (THP1 cells; [7]): Synergistic; Optimal
Excess HSA Score (THP1 cells; [7]): −48.9669
Comments (THP1 cells; [8]): Antagonistic at both
Excess HSA Score (THP1 cells; [8]): 230.5
Comments (THP1 cells; [9]): Synergistic
Excess HSA Score (THP1 cells; [9]): −562.3
Comments (THP1 cells; [10]): Antagonistic
Excess HSA Score (THP1 cells; [10]): 579.4
Comments (THP1 cells; [11]): Synergistic
Excess HSA Score (THP1 cells; [11]): −33.05
Comments (THP1 cells; [12]): Additive
Excess HSA Score (THP1 cells; [12]): −0.9078
Comments (THP1 cells; [13]): Synergistic; Optimal
Excess HSA Score (THP1 cells; [13]): −352.8
Comments (THP1 cells; [14]): Synergistic; Optimal
Excess HSA Score (THP1 cells; [14]): −979.3
Excess HSA Score (MOLM14(D835Y) cells; title compound starting conc. 2000 nM + (+)-BAY-1251152 starting conc. 1000 nM): −153.6
Excess HSA Score (MOLM14(D835Y) cells; title compound starting conc. 2000 nM + Azacitidine (5-Azacytidine) starting conc. 20000 nM): −672.6
Excess HSA Score (MOLM14(D835Y) cells; title compound starting conc. 2000 nM + Palbociclib starting conc. 10000 nM): −930
Excess HSA Score (MOLM14(D835Y) cells; title compound starting conc. 2000 nM + Prednisolone starting conc. 10000 nM): −435.8
Excess HSA Score (MOLM14(D835Y) cells; title compound starting conc. 2000 nM + TNO-155 starting conc. 10000 nM): −1272
Excess HSA Score (MOLM14(D835Y) cells; title compound starting conc. 2000 nM + Venetoclax (ABT-199) starting conc. 2000 nM): −280.9
Excess HSA Score (MOLM14(D835Y) cells; title compound starting conc. 2000 nM + Venetoclax (ABT-199) starting conc. 20000 nM): −1172
Excess HSA Score (MOLM14(D835Y) cells; [15]): −195.3
Excess HSA Score (MOLM14(D835Y) cells; [16]): −612.1
Excess HSA Score (MOLM14(D835Y) cells; [17]): −90.76
Excess HSA Score (MOLM14(D835Y) cells; [18]): −397.1
Excess HSA Score (MOLM14(D835Y) cells; [19]): −1174
Excess HSA Score (MOLM14(D835Y) cells; [20]): −1088
Excess HSA Score (MOLM14(D835Y) cells; [21]): −1078.145

Cc1cnc(-c2ccc(-c3ccc(NC(=O)Nc4c(F)cc(F)cc4F)cc3F)c3c2C(=O)NC3)[nH]1 [CG-806, reference compound]
Comments (THP1 cells; [22]): Synergistic at both
Excess HSA Score (THP1 cells; [22]): −467.1
Comments (THP1 cells; [23]): Antagonistic
Excess HSA Score (THP1 cells; [23]): 45.86
Comments (THP1 cells; [24]): Antagonistic
Excess HSA Score (THP1 cells; [24]): 74.09
Comments (THP1 cells; [25]): Synergistic
Excess HSA Score (THP1 cells; [25]): −30.78
Comments (THP1 cells; [26]): Antagonistic
Excess HSA Score (THP1 cells; [26]): 12.04
Comments (THP1 cells; [27]): Synergistic; Optimal
Excess HSA Score (THP1 cells; [27]): −1194
Comments (THP1 cells; [28]): Synergistic; Optimal
Excess HSA Score (THP1 cells; [28]): −1904
Comments (THP1 cells; [8]): Synergistic at both
Excess HSA Score (THP1 cells; [8]): −821.7
Comments (THP1 cells; [9]): Synergistic
Excess HSA Score (THP1 cells; [9]): −425.4
Comments (THP1 cells; [10]): Synergistic
Excess HSA Score (THP1 cells; [10]): −65.24
Comments (THP1 cells; [11]): Antagonistic
Excess HSA Score (THP1 cells; [11]): 185.6
Comments (THP1 cells; [12]): Synergistic
Excess HSA Score (THP1 cells; [12]): −333.2
Comments (THP1 cells; [13]): Synergistic; Optimal
Excess HSA Score (THP1 cells; [13]): −9.516
Comments (THP1 cells; [14]): Synergistic; Optimal
Excess HSA Score (THP1 cells; [14]): −1150
Excess HSA Score (MOLM14(D835Y) cells; title compound starting conc. 200 nM + (+)-BAY-1251152 starting conc. 1000 nM): −340.1
Excess HSA Score (MOLM14(D835Y) cells; title compound starting conc. 200 nM + Azacitidine (5-Azacytidine) starting conc. 20000 nM): −208.9
Excess HSA Score (MOLM14(D835Y) cells; title compound starting conc. 200 nM + Palbociclib starting conc. 10000 nM): −828
Excess HSA Score (MOLM14(D835Y) cells; title compound starting conc. 200 nM + Prednisolone starting conc. 10000 nM): −264.6
Excess HSA Score (MOLM14(D835Y) cells; title compound starting conc. 200 nM + TNO-155 starting conc. 10000 nM): −776.6
Excess HSA Score (MOLM14(D835Y) cells; title compound starting conc. 200 nM + Venetoclax (ABT-199) starting conc. 2000 nM): −1066
Excess HSA Score (MOLM14(D835Y) cells; title compound starting conc. 200 nM + Venetoclax (ABT-199) starting conc. 20000 nM): −258.9
Excess HSA Score (MOLM14(D835Y) cells; [15]): −150.9
Excess HSA Score (MOLM14(D835Y) cells; [16]): −51.33
Excess HSA Score (MOLM14(D835Y) cells; [17]): −199.1
Excess HSA Score (MOLM14(D835Y) cells; [18]): 107.5
Excess HSA Score (MOLM14(D835Y) cells; [19]): −286.9
Excess HSA Score (MOLM14(D835Y) cells; [20]): −481.6
Excess HSA Score (MOLM14(D835Y) cells; [21]): −139.4

CCc1nc(C(N)=O)c(Nc2ccc(N3CCC(N4CCN(C)CC4)CC3)c(OC)c2)nc1NC1CCOCC1 [Gilteritinib hemifumarate, Gilteritinib, reference compound]
Excess HSA Score (THP1 cells; starting conc. 500 nM, with (+)-BAY-1251152 starting conc. 1000 nM): −10.1945
Excess HSA Score (THP1 cells; starting conc. 500 nM, with Azacitidine (5-Azacytidine) starting conc. 20000 nM): −354.4
Excess HSA Score (THP1 cells; starting conc. 500 nM, with Palbociclib starting conc. 10000 nM): −228
Excess HSA Score (THP1 cells; starting conc. 500 nM, with Prednisolone starting conc. 10000 nM): 119.9
Excess HSA Score (THP1 cells; starting conc. 500 nM, with TNO-155 starting conc. 10000 nM): 15.34
Excess HSA Score (THP1 cells; starting conc. 500 nM, with Venetoclax (ABT-199) starting conc. 2000 nM): −95.51
Excess HSA Score (THP1 cells; starting conc. 500 nM, with Venetoclax (ABT-199) starting conc. 20000 nM): −866.3
Excess HSA Score (THP1 cells; [8]): −484.1
Excess HSA Score (THP1 cells; [9]): −391.5
Excess HSA Score (THP1 cells; [10]): −415
Excess HSA Score (THP1 cells; [11]): −149.2201
Excess HSA Score (THP1 cells; [12]): −398.3
Excess HSA Score (THP1 cells; [13]): −448
Excess HSA Score (THP1 cells; [14]): −1390
Excess HSA Score (MOLM14(D835Y) cells; title compound starting conc. 500 nM + (+)-BAY-1251152 starting conc. 1000 nM): 161.1
Excess HSA Score (MOLM14(D835Y) cells; title compound starting conc. 500 nM + Azacitidine (5-Azacytidine) starting conc. 20000 nM): −848
Excess HSA Score (MOLM14(D835Y) cells; title compound starting conc. 500 nM + Palbociclib starting conc. 10000 nM): −910.3
Excess HSA Score (MOLM14(D835Y) cells; title compound starting conc. 500 nM + Prednisolone starting conc. 10000 nM): −285.8
Excess HSA Score (MOLM14(D835Y) cells; title compound starting conc. 500 nM + TNO-155 starting conc. 10000 nM): −773.9
Excess HSA Score (MOLM14(D835Y) cells; title compound starting conc. 500 nM + Venetoclax (ABT-199) starting conc. 2000 nM): −704
Excess HSA Score (MOLM14(D835Y) cells; title compound starting conc. 500 nM + Venetoclax (ABT-199) starting conc. 20000 nM): −237.3
Excess HSA Score (MOLM14(D835Y) cells; [15]): 43.97
Excess HSA Score (MOLM14(D835Y) cells; [16]): −117
Excess HSA Score (MOLM14(D835Y) cells; [17]): −262.1121
Excess HSA Score (MOLM14(D835Y) cells; [18]): −290.6
Excess HSA Score (MOLM14(D835Y) cells; [19]): −494.5
Excess HSA Score (MOLM14(D835Y) cells; [20]): −876.4
Excess HSA Score (MOLM14(D835Y) cells; [21]): −271.3
